# The source made the active and inactive calls. The calls are words filed in the database; no cut-off is given here.
# Columns and labels:
# HOS-TE85 [1] = assay: Antiproliferative activity against human MNNG/HOS cells assessed as inhibition of cell growth incubated for 72 hrs by CCK8 assay; format: functional, cell-based; conditions: HOS-TE85, 72 h
# [2] = Metabolic stability in human liver microsomes assessed as half-life at 0.1 uM preincubated for 10 mins followed by NADPH addition and measured upto 60 mins by LC-MS/MS analysis; format: ADME, Microsome; conditions: time < 70 min
# [3] = Metabolic stability in human liver microsomes assessed as bioavailability at 0.1 uM preincubated for 10 mins followed by NADPH addition and measured upto 60 mins by LC-MS/MS analysis; format: ADME, Microsome; conditions: time < 70 min
# [4] = Metabolic stability in mouse liver microsomes assessed as half-life at 0.1 uM preincubated for 10 mins followed by NADPH addition and measured upto 60 mins by LC-MS/MS analysis; format: ADME, Microsome; conditions: time < 70 min
# 143B = assay: Antiproliferative activity against human 143B cells assessed as inhibition of cell growth incubated for 72 hrs by CCK8 assay; format: functional, cell-based
# SAOS-2 = assay: Antiproliferative activity against human SAOS-2 cells assessed as inhibition of cell growth incubated for 72 hrs by CCK8 assay; format: functional, cell-based; conditions: SAOS-2, 72 h
# SJSA-1 = assay: Antiproliferative activity against human SJSA-1 cells assessed as inhibition of cell growth incubated for 72 hrs by CCK8 assay; format: functional, cell-based; conditions: SJSA-1, 72 h
# MGC-803 = assay: Antiproliferative activity against human MGC-803 cells assessed as inhibition of cell growth incubated for 72 hrs by CCK8 assay; format: functional, cell-based; conditions: MGC-803, 72 h
# MG-63 = assay: Antiproliferative activity against human MG-63 cells assessed as inhibition of cell growth incubated for 72 hrs by CCK8 assay; format: functional, cell-based; conditions: MG-63, 72 h
# A549 = assay: Antiproliferative activity against human A549 cells assessed as inhibition of cell growth incubated for 72 hrs by CCK8 assay; format: functional, cell-based; conditions: A549, 72 h
# [5] = Antiproliferative activity against BMSC (unknown origin) assessed as inhibition of cell growth incubated for 72 hrs by CCK8 assay; format: functional, cell-based
# PC-3 = assay: Antiproliferative activity against human PC-3 cells assessed as inhibition of cell growth incubated for 72 hrs by CCK8 assay; format: functional, cell-based; conditions: PC-3, 72 h
# HOS-TE85 [6] = assay: Potency index, ratio of sorafenib IC50 to test compound IC50 for antiproliferative activity against human MNNG/HOS cells; format: functional
# HOS-TE85 [7] = assay: Inhibition of colony formation in human MNNG/HOS cells incubated for 10 days by crystal violet staining based light microscopic analysis; format: functional, cell-based; conditions: dose 0.1-0.4 µM, time 10.0 day
# HOS-TE85 [8] = assay: Inhibition of cell migration in human MNNG/HOS cells assessed as reduction in closure rate at 0.2 uM incubated for 24 hrs by wound healing assay; format: functional, cell-based
# [9] = Clearance in male ICR mouse at 12.5 mg/kg, iv measured after 24 hrs by LC-MS/MS analysis; format: ADME, organism-based; conditions: in vivo
# [10] = Cmax in male ICR mouse at 12.5 mg/kg, iv measured after 24 hrs by LC-MS/MS analysis; format: ADME, organism-based; conditions: in vivo
# [11] = Half-life in male ICR mouse at 12.5 mg/kg, iv measured after 24 hrs by LC-MS/MS analysis; format: ADME, organism-based; conditions: in vivo
# [12] = AUC (0 to infinity) in male ICR mouse at 12.5 mg/kg, iv measured after 24 hrs by LC-MS/MS analysis; format: ADME, organism-based; conditions: in vivo
# [13] = Cmax in male ICR mouse at 62.5 mg/kg, ip measured after 24 hrs by LC-MS/MS analysis; format: ADME, organism-based; conditions: in vivo
# [14] = Half-life in male ICR mouse at 62.5 mg/kg, ip measured after 24 hrs by LC-MS/MS analysis; format: ADME, organism-based; conditions: in vivo
# [15] = AUC (0 to infinity) in male ICR mouse at 62.5 mg/kg, ip measured after 24 hrs by LC-MS/MS analysis; format: ADME, organism-based; conditions: in vivo
# [16] = Bioavailability in male ICR mouse at 62.5 mg/kg, ip measured after 24 hrs by LC-MS/MS analysis; format: ADME, organism-based; conditions: in vivo
# HOS-TE85 [17] = assay: Antitumor activity against human MNNG/HOS cells xenografted in female BALB/c mouse assessed as tumor growth inhibition at 62.5 mg/kg, ip administered twice daily for 23 days relative to control; format: functional; conditions: HOS-TE85, 552 h, time 23 day, read-out: TGI
# HOS-TE85 [18] = assay: Antitumor activity against human MNNG/HOS cells xenografted in female BALB/c mouse assessed as reduction in tumor volume at 62.5 mg/kg, ip administered twice daily for 23 days; format: functional, organism-based; conditions: time 23.0 day
# [19] = Toxicity in female BALB/c mouse xenografted with human MNNG/HOS cells assessed as effect on heart morphology at 62.5 mg/kg, ip administered twice daily for 23 days by Hematoxylin and Eosin staining based analysis; format: organism-based, HOS-TE85; conditions: in vivo, 552 h, time 23 day
# [20] = Toxicity in female BALB/c mouse xenografted with human MNNG/HOS cells assessed as effect on liver morphology at 62.5 mg/kg, ip administered twice daily for 23 days by Hematoxylin and Eosin staining based analysis; format: organism-based, HOS-TE85; conditions: in vivo, 552 h, time 23 day
# [21] = Toxicity in female BALB/c mouse xenografted with human MNNG/HOS cells assessed as effect on spleen morphology at 62.5 mg/kg, ip administered twice daily for 23 days by Hematoxylin and Eosin staining based analysis; format: organism-based, HOS-TE85; conditions: in vivo, 552 h, time 23 day
# [22] = Toxicity in female BALB/c mouse xenografted with human MNNG/HOS cells assessed as effect on kidney morphology at 62.5 mg/kg, ip administered twice daily for 23 days by Hematoxylin and Eosin staining based analysis; format: organism-based, HOS-TE85; conditions: in vivo, 552 h, time 23 day
# [23] = Toxicity in female BALB/c mouse xenografted with human MNNG/HOS cells assessed as effect on heart weight at 62.5 mg/kg, ip administered twice daily for 23 days; format: organism-based, HOS-TE85; conditions: in vivo, 552 h, time 23 day
# [24] = Toxicity in female BALB/c mouse xenografted with human MNNG/HOS cells assessed as effect on liver weight at 62.5 mg/kg, ip administered twice daily for 23 days; format: organism-based, HOS-TE85; conditions: in vivo, 552 h, time 23 day
# [25] = Toxicity in female BALB/c mouse xenografted with human MNNG/HOS cells assessed as effect on spleen weight at 62.5 mg/kg, ip administered twice daily for 23 days; format: organism-based, HOS-TE85; conditions: in vivo, 552 h, time 23 day
# [26] = Toxicity in female BALB/c mouse xenografted with human MNNG/HOS cells assessed as effect on kidney weight at 62.5 mg/kg, ip administered twice daily for 23 days; format: organism-based, HOS-TE85; conditions: in vivo, 552 h, time 23 day
# HOS-TE85 [27] = assay: Induction of cell cycle arrest in human MNNG/HOS cells incubated for 24 hrs bby PI/RNase A staining based analysis; format: functional
# HOS-TE85 [28] = assay: Induction of apoptosis in human MNNG/HOS cells at 0.11 to 0.44 uM incubated for 24 hrs by Annexin V-FITC/PI staining based analysis; format: functional, cell-based; conditions: dose 0.11-0.44 µM
# HOS-TE85 [29] = assay: Induction of apoptosis in human MNNG/HOS cells assessed as effect on Bcl-2 level incubated for 24 hrs by Western blot analysis; format: functional, cell-based
# HOS-TE85 [30] = assay: Induction of apoptosis in human MNNG/HOS cells assessed as effect on Bax level incubated for 24 hrs by Western blot analysis; format: functional, cell-based
# HOS-TE85 [31] = assay: Induction of apoptosis in human MNNG/HOS cells assessed as effect on caspase-3 level incubated for 24 hrs by Western blot analysis; format: functional, cell-based
# HOS-TE85 [32] = assay: Inhibition of p53 protein expression in human MNNG/HOS cells incubated for 24 hrs by Western blot analysis; format: functional, cell-based
# HOS-TE85 [33] = assay: Inhibition of MYOF protein expression in human MNNG/HOS cells incubated for 24 hrs by Western blot analysis; format: functional, cell-based
# HOS-TE85 [34] = assay: Effect on DDX5 protein expression in human MNNG/HOS cells by ABPP assay; format: functional, cell-based
# HOS-TE85 [35] = assay: Antiproliferative activity against human MNNG/HOS cells transfected with DDX5 shRNA assessed as inhibition of cell growth incubated for 72 hrs by CCK8 assay; format: functional, cell-based; conditions: HOS-TE85, 72 h
compound,measurement,setting,value
COCCCCNC(=O)c1cccc(C2N(c3ncccc3OC)C(=O)CS2(=O)=O)n1 (racemic),IC50,HOS-TE85 [1],217 nM
same,half-life at 0.1 µM,[2],156 min
same,bioavailability at 0.1 µM,[3],59.3%
same,half-life at 0.1 µM,[4],73.8 min
same,IC50,143B,295 nM
same,IC50,SAOS-2,430 nM
same,IC50,SJSA-1,304 nM
same,IC50,MGC-803,394 nM
same,IC50,MG-63,1090 nM
same,IC50,A549,1890 nM
same,IC50,[5],2130 nM
same,IC50,PC-3,4.3 µM
same,Ratio IC50,HOS-TE85 [6],~20
same,inhibition,HOS-TE85 [7],Dose-Dependent Effect
same,inhibition,HOS-TE85 [8],Active
same,clearance,[9],126 mL/min/kg
same,Cmax,[10],5420 ng/mL
same,half-life,[11],13.3 min
same,AUC(0-inf),[12],1660 ng·h/mL
same,Cmax,[13],78.3 ng/mL
same,half-life,[14],91.8 min
same,AUC(0-inf),[15],9560 ng·h/mL
same,bioavailability,[16],115%
same,inhibition in vivo at 62.5 mg/kg,HOS-TE85 [17],44.6%
same,Activity,HOS-TE85 [18],Active
same,Activity,[19],Non-Toxic
same,Activity,[20],Non-Toxic
same,Activity,[21],Non-Toxic
same,Activity,[22],Non-Toxic
same,Activity,[23],Non-Toxic
same,Activity,[24],Non-Toxic
same,Activity,[25],Non-Toxic
same,Activity,[26],Non-Toxic
same,Activity,HOS-TE85 [27],inactive
same,Activity,HOS-TE85 [28],inactive
same,Activity,HOS-TE85 [29],inactive
same,Activity,HOS-TE85 [30],inactive
same,Activity,HOS-TE85 [31],inactive
same,inhibition,HOS-TE85 [32],inactive
same,inhibition,HOS-TE85 [33],inactive
same,Activity,HOS-TE85 [34],inactive
same,IC50,HOS-TE85 [35],277 nM

# Reference: ChEMBL document CHEMBL5518196, “Discovery of potent thiazolidin-4-one sulfone derivatives for inhibition of proliferation of osteosarcoma in vitro and in vivo” (Eur J Med Chem, 2024)
